Laboratory results taken from patent publication US20230085307A1, “PYRIDAZINONE COMPOUND AND HERBICIDE” (NISSAN CHEMICAL CORPORATION, priority 2019, published 2023).

Key:
Japanese bulrush = test: Test Example 1: herbicidal activity, application before weed generation under submerged conditions (Table 16, symbol B); format: in vivo, Japanese bulrush (Schoenoplectus juncoides); settings: 320 g/ha applied herbicide
Summary of the method: (§1)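 Emulsion formulation, water-diluted to set dose, was put onto the flooded surface (4 cm depth, alluvial soil) the same day weeds were sown and 2.5-leaf rice transplanted. After 3 weeks at 25-30 °C under glass, each species was rated 0 (≤5% kill) to 5 (≥90% kill).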

velvetleaf = test: Test Example 5: herbicidal effect by foliage application, plastic box (Table 20, symbol M); format: in vivo, velvetleaf (Abutilon theophrasti); settings: foliage application; for effect on velvetleaf (M): 320 g/ha, 3 weeks after application
Summary of the method: (§2)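 Plants were sown into sterilized diluvial soil under about 1.5 cm cover and kept in a greenhouse at 25° C. to 30° C. Fourteen days on, foliage received an even spray of the diluted emulsion. Herbicidal or crop effect was judged three weeks afterwards.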

windgrass = test: Test Example 4: herbicidal effect by soil treatment (Table 19, symbol L); format: in vivo, windgrass (Apera spica-venti); settings: for herbicidal effect rating, L: windgrass: 320 g/ha
Summary of the method: (§3)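 In this soil treatment, the formulated compound reached the seeds only through the soil: seeds were buried about 1.5 cm deep in sterilized diluvial soil, then the diluted emulsion was sprayed over the surface. After three weeks at 25° C. to 30° C. in a greenhouse, effects were graded on criteria from an earlier test.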

late watergrass = test: Test Example 1: herbicidal activity, application before weed generation under submerged conditions (Table 16, symbol A); format: in vivo, late watergrass (Echinochloa oryzicola); settings: 320 g/ha applied herbicide
Summary of the method: as §1

Italian ryegrass [1] = test: Test Example 4: herbicidal effect by soil treatment (Table 19, symbol K); format: in vivo, Italian ryegrass (Lolium multiflorum); settings: for herbicidal effect rating, K: Italian ryegrass: 320 g/ha
Summary of the method: as §3

blackgrass = test: Test Example 5: herbicidal effect by foliage application, plastic box (Table 20, symbol J); format: in vivo, blackgrass (Alopecurus myosuroides); settings: foliage application; for effect on blackgrass (J): 320 g/ha, 3 weeks after application
Summary of the method: as §2

Chinese sprangletop = test: Test Example 3: herbicidal effect by foliage application, Wagner pot (Table 18, symbol D); format: in vivo, chinese sprangletop (Leptochloa chinensis); settings: 320 g/ha
Summary of the method: (§4)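 Plants were sown in alluvial soil held under 0.1–0.5 cm standing water and grown 14 days in a greenhouse at 25–30 °C. An emulsifiable formulation, water-diluted to the set dose, was then sprayed onto the foliage, and effects were scored three weeks later using previously defined criteria.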

Italian ryegrass [2] = test: Test Example 5: herbicidal effect by foliage application, plastic box (Table 20, symbol K); format: in vivo, Italian ryegrass (Lolium multiflorum); settings: foliage application; for effect on Italian ryegrass (K): 320 g/ha, 3 weeks after application
Summary of the method: as §2

chickweed = test: Test Example 4: herbicidal effect by soil treatment (Table 19, symbol P); format: in vivo, common chickweed (Stellaria media); settings: for herbicidal effect rating, P: chickweed: 320 g/ha
Summary of the method: as §3

lambsquarters [3] = test: Test Example 5: herbicidal effect by foliage application, plastic box (Table 20, symbol O); format: in vivo, lambsquarters (Chenopodium album); settings: foliage application; for effect on lambsquarters (O): 320 g/ha, 3 weeks after application
Summary of the method: as §2

barnyard grass = test: Test Example 3: herbicidal effect by foliage application, Wagner pot (Table 18, symbol H); format: in vivo, barnyard grass (Echinochloa crus-galli); settings: 320 g/ha
Summary of the method: as §4

lambsquarters [4] = test: Test Example 4: herbicidal effect by soil treatment (Table 19, symbol O); format: in vivo, lambsquarters (Chenopodium album); settings: for herbicidal effect rating, O: lambsquarters: 320 g/ha
Summary of the method: as §3

green foxtail = test: Test Example 5: herbicidal effect by foliage application, plastic box (Table 20, symbol G); format: in vivo, green foxtail (Setaria viridis); settings: foliage application; for effect on green foxtail (G): 320 g/ha, 3 weeks after application
Summary of the method: as §2

oval-leafed pondweed = test: Test Example 1: herbicidal activity, application before weed generation under submerged conditions (Table 16, symbol C); format: in vivo, oval-leafed pondweed (Monochoria vaginalis); settings: 320 g/ha applied herbicide
Summary of the method: as §1

wild oat = test: Test Example 5: herbicidal effect by foliage application, plastic box (Table 20, symbol I); format: in vivo, wild oat (Avena fatua); settings: foliage application; for effect on wild oat (I): 320 g/ha, 3 weeks after application
Summary of the method: as §2

southern crabgrass = test: Test Example 5: herbicidal effect by foliage application, plastic box (Table 20, symbol F); format: in vivo, southern crabgrass (Digitaria ciliaris); settings: foliage application; for effect on southern crabgrass (F): 320 g/ha, 3 weeks after application
Summary of the method: as §2

rice flat sedge = test: Test Example 3: herbicidal effect by foliage application, Wagner pot (Table 18, symbol E); format: in vivo, rice flat sedge (Cyperus iria); settings: 320 g/ha
Summary of the method: as §4

[5] = AAH 320 g/ha, three weeks after application

Compound	Herbicidal effect on B: Japanese bulrush (grade 0-5) (Japanese bulrush)	effect on velvetleaf (M) (velvetleaf)	herbicidal effect rating, L: windgrass (windgrass)	Herbicidal effect on A: late watergrass (grade 0-5) (late watergrass)	herbicidal effect rating, K: Italian ryegrass (Italian ryegrass [1])	effect on blackgrass (J) (blackgrass)	herbicidal effect on D (Chinese sprangletop), rating 0-5 (Chinese sprangletop)	effect on Italian ryegrass (K) (Italian ryegrass [2])	herbicidal effect rating, P: chickweed (chickweed)	effect on lambsquarters (O) (lambsquarters [3])	herbicidal effect on H (barnyard grass), rating 0-5 (barnyard grass)	herbicidal effect rating, O: lambsquarters (lambsquarters [4])	effect on green foxtail (G) (green foxtail)	Herbicidal effect on C: oval-leafed pondweed (grade 0-5) (oval-leafed pondweed)	effect on wild oat (I) (wild oat)	effect on southern crabgrass (F) (southern crabgrass)	herbicidal effect on E (rice flat sedge), rating 0-5 (rice flat sedge)	further results
CCCC(=O)Oc1c(C)nn(C)c(=O)c1-c1c(-c2ccc(OC)cc2)sc2ccc(F)cc12 [2-027]	5 (Herbicidal rate of 90% or more (almost completely withered))	5 (Herbicidal rate of 90% or more (almost completely withered))	0 (Herbicidal rate of 5% or less (almost no effect))	4 (Herbicidal rate of 70% or more and less than 90%)	4 (Herbicidal rate of 70% or more and less than 90%)	2 (Herbicidal rate of 20% or more and less than 40%)	4 (Herbicidal rate of 70% or more and less than 90%)	5 (Herbicidal rate of 90% or more (almost completely withered))	4 (Herbicidal rate of 70% or more and less than 90%)	5 (Herbicidal rate of 90% or more (almost completely withered))	5 (Herbicidal rate of 90% or more (almost completely withered))	5 (Herbicidal rate of 90% or more (almost completely withered))	4 (Herbicidal rate of 70% or more and less than 90%)	4 (Herbicidal rate of 70% or more and less than 90%)	4 (Herbicidal rate of 70% or more and less than 90%)	4 (Herbicidal rate of 70% or more and less than 90%)	5 (Herbicidal rate of 90% or more (almost completely withered))	–
CCCC(=O)Oc1c(C)nn(C)c(=O)c1-c1c(-c2ccccc2OC(F)(F)F)sc2ccc(F)cc12 [2-044]	0 (Herbicidal rate of 5% or less (almost no effect))	5 (Herbicidal rate of 90% or more (almost completely withered))	0 (Herbicidal rate of 5% or less (almost no effect))	3 (Herbicidal rate of 40% or more and less than 70%)	0 (Herbicidal rate of 5% or less (almost no effect))	0 (Herbicidal rate of 5% or less (almost no effect))	2 (Herbicidal rate of 20% or more and less than 40%)	0 (Herbicidal rate of 5% or less (almost no effect))	3 (Herbicidal rate of 40% or more and less than 70%)	1 (Herbicidal rate of 5% or more and less than 20%)	3 (Herbicidal rate of 40% or more and less than 70%)	5 (Herbicidal rate of 90% or more (almost completely withered))	5 (Herbicidal rate of 90% or more (almost completely withered))	0 (Herbicidal rate of 5% or less (almost no effect))	3 (Herbicidal rate of 40% or more and less than 70%)	4 (Herbicidal rate of 70% or more and less than 90%)	5 (Herbicidal rate of 90% or more (almost completely withered))	–
Cc1nn(C)c(=O)c(-c2c(-c3ccc([N+](=O)[O-])cc3)sc3ccccc23)c1O [1-151]	3 (Herbicidal rate of 40% or more and less than 70%)	–	–	3 (Herbicidal rate of 40% or more and less than 70%)	–	–	3 (Herbicidal rate of 40% or more and less than 70%)	–	–	–	4 (Herbicidal rate of 70% or more and less than 90%)	–	–	3 (Herbicidal rate of 40% or more and less than 70%)	–	–	5 (Herbicidal rate of 90% or more (almost completely withered))	M: velvetleaf, herbicidal effect (velvetleaf; [5]): 5 (Herbicidal rate of 90% or more (almost completely withered)); L: windgrass, herbicidal effect rating (windgrass; AAH 320 g/ha): 0 (Herbicidal rate of 5% or less (almost no effect)); K: Italian ryegrass, herbicidal effect rating (Italian ryegrass [1]; AAH 320 g/ha): 3 (Herbicidal rate of 40% or more and less than 70%); J: blackgrass, herbicidal effect (blackgrass; [5]): 0 (Herbicidal rate of 5% or less (almost no effect)); K: Italian ryegrass, herbicidal effect (Italian ryegrass [2]; [5]): 5 (Herbicidal rate of 90% or more (almost completely withered)); P: chickweed, herbicidal effect rating (chickweed; AAH 320 g/ha): 0 (Herbicidal rate of 5% or less (almost no effect)); O: lambsquarters, herbicidal effect (lambsquarters [3]; [5]): 5 (Herbicidal rate of 90% or more (almost completely withered)); O: lambsquarters, herbicidal effect rating (lambsquarters [4]; AAH 320 g/ha): 2 (Herbicidal rate of 20% or more and less than 40%); G: green foxtail, herbicidal effect (green foxtail; [5]): 3 (Herbicidal rate of 40% or more and less than 70%); I: wild oat, herbicidal effect (wild oat; [5]): 0 (Herbicidal rate of 5% or less (almost no effect)); F: southern crabgrass, herbicidal effect (southern crabgrass; [5]): 4 (Herbicidal rate of 70% or more and less than 90%)
CCCC(=O)Oc1c(C)nn(C)c(=O)c1-c1c(-c2ccc(Cl)cc2)sc2ccc(F)cc12 [2-011]	3 (Herbicidal rate of 40% or more and less than 70%)	5 (Herbicidal rate of 90% or more (almost completely withered))	2 (Herbicidal rate of 20% or more and less than 40%)	3 (Herbicidal rate of 40% or more and less than 70%)	5 (Herbicidal rate of 90% or more (almost completely withered))	2 (Herbicidal rate of 20% or more and less than 40%)	4 (Herbicidal rate of 70% or more and less than 90%)	5 (Herbicidal rate of 90% or more (almost completely withered))	2 (Herbicidal rate of 20% or more and less than 40%)	5 (Herbicidal rate of 90% or more (almost completely withered))	5 (Herbicidal rate of 90% or more (almost completely withered))	5 (Herbicidal rate of 90% or more (almost completely withered))	5 (Herbicidal rate of 90% or more (almost completely withered))	3 (Herbicidal rate of 40% or more and less than 70%)	3 (Herbicidal rate of 40% or more and less than 70%)	4 (Herbicidal rate of 70% or more and less than 90%)	5 (Herbicidal rate of 90% or more (almost completely withered))	–
